Calls of active or inactive are those of the source.
Columns and labels:
Phosphomannomutase 2 = Phosphomannomutase 2 (Homo sapiens, UniProt O15305); experiment: Counter screen SAR assay for PMM2 inhibitors via a fluorescence intensity assay. [Related pubchem assays (depositor defined):AID1545, AID1574]
[1] = molecular target: T1, Mannose-6-phosphate isomerase (Homo sapiens, UniProt P34949); experiment: phosphomannose isomerase inhibition – biochemical, fluorescence intensity, confirmation (AID 1535)
T1 sequence (P34949 whole entry): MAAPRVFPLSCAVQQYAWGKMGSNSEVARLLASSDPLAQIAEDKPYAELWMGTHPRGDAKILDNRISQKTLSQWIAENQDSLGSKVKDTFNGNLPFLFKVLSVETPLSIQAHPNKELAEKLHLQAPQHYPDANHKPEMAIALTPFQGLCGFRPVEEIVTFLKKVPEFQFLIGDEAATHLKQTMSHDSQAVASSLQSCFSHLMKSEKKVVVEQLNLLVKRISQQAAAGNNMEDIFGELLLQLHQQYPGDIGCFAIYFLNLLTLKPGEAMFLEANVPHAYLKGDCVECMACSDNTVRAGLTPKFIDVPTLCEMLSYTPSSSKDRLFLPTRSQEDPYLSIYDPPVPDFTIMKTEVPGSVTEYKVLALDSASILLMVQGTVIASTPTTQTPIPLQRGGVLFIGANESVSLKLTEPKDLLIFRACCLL

[2] = molecular target: T2, Dual specificity protein phosphatase 3 (Homo sapiens, UniProt P51452); experiment: VHR1 phosphatase inhibitors, biochemical (AID 1878)
[3] = molecular target: T2, Dual specificity protein phosphatase 3; experiment: VHR1 phosphatase inhibitors, primary screen, biochemical, absorbance, uHTS (AID 1654)
[4] = molecular target: T3, Dual specificity protein phosphatase 6 (Rattus norvegicus, UniProt Q64346); experiment: inhibition of rat DUSP6 enzyme activity – biochemical, in vitro, primary screen (AID 425)
T3 sequence (Q64346 whole entry): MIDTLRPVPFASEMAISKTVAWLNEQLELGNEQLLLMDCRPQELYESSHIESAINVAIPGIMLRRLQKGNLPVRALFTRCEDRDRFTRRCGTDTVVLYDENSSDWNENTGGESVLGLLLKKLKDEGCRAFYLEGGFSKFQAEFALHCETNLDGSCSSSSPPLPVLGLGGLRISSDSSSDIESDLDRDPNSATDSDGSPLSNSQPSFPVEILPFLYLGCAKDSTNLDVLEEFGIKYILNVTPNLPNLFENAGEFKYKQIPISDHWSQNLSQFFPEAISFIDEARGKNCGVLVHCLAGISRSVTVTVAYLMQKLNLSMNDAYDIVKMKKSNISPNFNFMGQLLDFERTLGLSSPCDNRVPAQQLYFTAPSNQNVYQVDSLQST

[5] = molecular target: T4, Voltage-gated N-type calcium channel alpha-1B subunit/Amyloid beta A4 precursor protein-binding family A member 1 (Homo sapiens, UniProt Q00975+Q02410); type: protein assay
[6] = molecular target: Serine/threonine-protein phosphatase PP1-alpha catalytic subunit (Homo sapiens, UniProt P62136); experiment: inhibition of protein phosphatase 1 activity – biochemical, fluorescence, dose response (AID 2403);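 further: phosphatase turnover of OMFP into fluorescent 3-O-methylfluorescein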
[7] = molecular target: T4, Voltage-gated N-type calcium channel alpha-1B subunit/Amyloid beta A4 precursor protein-binding family A member 1; type: protein assay; remark: listed apart in the source
[8] = molecular target: T5, Serine/threonine-protein phosphatase (Homo sapiens, UniProt Q9BPW0); experiment: Counterscreen for inhibitors of PP1: fluorescence-based biochemical high throughput dose response assay to identify inhibitors of Protein Phosphatase 5 (PP5). [Related pubchem assays: 2034 (Summary (PP5 inhibitors)), 1987 (PP5 inhibitors in singlate), 2235 (PP1 inhibitors in singlate)]
T5 sequence (Q9BPW0 whole entry): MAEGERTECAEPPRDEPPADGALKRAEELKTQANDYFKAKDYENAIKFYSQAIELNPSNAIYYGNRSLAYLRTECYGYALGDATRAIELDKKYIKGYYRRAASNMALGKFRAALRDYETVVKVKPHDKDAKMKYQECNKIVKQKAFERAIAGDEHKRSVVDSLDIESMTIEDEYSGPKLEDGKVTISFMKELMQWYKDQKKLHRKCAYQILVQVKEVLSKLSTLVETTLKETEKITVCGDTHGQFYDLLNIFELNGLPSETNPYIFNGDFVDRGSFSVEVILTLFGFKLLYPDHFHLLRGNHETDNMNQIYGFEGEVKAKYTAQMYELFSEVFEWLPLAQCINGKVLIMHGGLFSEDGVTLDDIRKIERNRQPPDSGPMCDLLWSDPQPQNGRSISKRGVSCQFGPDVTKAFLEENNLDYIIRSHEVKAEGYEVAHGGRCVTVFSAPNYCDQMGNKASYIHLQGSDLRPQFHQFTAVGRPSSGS

[9] = molecular target: T6, Zinc finger protein mex-5 (Caenorhabditis elegans, UniProt Q9XUB2); experiment: potency of MEX-5 RNA-binding blockers – biochemical, C. elegans, fluorescence polarization, dose response (AID 1960)
T6 sequence (Q9XUB2 whole entry): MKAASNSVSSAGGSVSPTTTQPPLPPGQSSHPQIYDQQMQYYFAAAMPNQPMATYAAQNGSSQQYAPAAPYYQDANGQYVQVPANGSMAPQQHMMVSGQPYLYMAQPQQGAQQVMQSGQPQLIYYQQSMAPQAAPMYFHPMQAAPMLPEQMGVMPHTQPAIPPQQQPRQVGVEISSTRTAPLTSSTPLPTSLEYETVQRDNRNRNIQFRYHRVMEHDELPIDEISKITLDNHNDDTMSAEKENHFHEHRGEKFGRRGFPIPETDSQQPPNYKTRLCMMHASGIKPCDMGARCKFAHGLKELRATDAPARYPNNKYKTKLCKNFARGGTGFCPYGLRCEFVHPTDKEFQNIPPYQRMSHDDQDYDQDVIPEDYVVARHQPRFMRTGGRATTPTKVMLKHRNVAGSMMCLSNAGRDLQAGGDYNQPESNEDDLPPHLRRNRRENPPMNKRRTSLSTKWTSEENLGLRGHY

Apelin receptor = Apelin receptor (Homo sapiens, UniProt P35414); experiment: apelin receptor antagonists, arrestin read-out – cell-based, luminescent, enzyme-fragment complementation, selectivity assay for CCR6 antagonist project, SAR follow-up (AID 588359); type: functional
Trypsin = Trypsin (Sus scrofa, UniProt P00761); experiment: trypsin protease activity blockade – biochemical, quenched peptide fluorescence, cherry-pick, selectivity assay for Rce1 protease inhibitor project, dose response (AID 488789)
CAAX prenyl protease 1 = CAAX prenyl protease 1 (Saccharomyces cerevisiae S288c, UniProt P47154); experiment: yeast CAAX protease Ste24 inhibition – biochemical, S. cerevisiae, plate reader, cherry-pick, dose response (AID 488815)
[10] = molecular target: T7, Kappa-type opioid receptor (Homo sapiens, UniProt P41145); type: functional
[11] = molecular target: T8, Delta-type opioid receptor (Homo sapiens, UniProt P41143); experiment: HTS Image-Based Screen for Agonists of the DOR Receptor. [Related pubchem assays (depositor defined):AID1777, AID1786, AID2133]; type: functional
Mu-type opioid receptor [12] = molecular target: T9, Mu-type opioid receptor (Homo sapiens, UniProt P35372); experiment: HTS Image-Based Screen for Agonists of the MOR Receptor. [Related pubchem assays (depositor defined):AID1777, AID1785, AID1786, AID2133]; type: functional
[13] = molecular target: T8, Delta-type opioid receptor; experiment: HTS Image-Based Screen for Antagonists of the DOR Receptor. [Related pubchem assays (depositor defined):AID1777, AID1785, AID1786, AID2133]; type: functional
[14] = molecular target: T10, Short transient receptor potential channel 4 (Mus musculus, UniProt Q9QUQ5); experiment: block of DAMGO-driven TRPC4 calcium entry – cell-based, HEK293 TRPC4/mu-opioid, Fluo-4 calcium, dose response (AID 434942); type: functional;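 further: potency of inhibitors blocking the TRPC4 calcium response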
T10 sequence (Q9QUQ5 whole entry): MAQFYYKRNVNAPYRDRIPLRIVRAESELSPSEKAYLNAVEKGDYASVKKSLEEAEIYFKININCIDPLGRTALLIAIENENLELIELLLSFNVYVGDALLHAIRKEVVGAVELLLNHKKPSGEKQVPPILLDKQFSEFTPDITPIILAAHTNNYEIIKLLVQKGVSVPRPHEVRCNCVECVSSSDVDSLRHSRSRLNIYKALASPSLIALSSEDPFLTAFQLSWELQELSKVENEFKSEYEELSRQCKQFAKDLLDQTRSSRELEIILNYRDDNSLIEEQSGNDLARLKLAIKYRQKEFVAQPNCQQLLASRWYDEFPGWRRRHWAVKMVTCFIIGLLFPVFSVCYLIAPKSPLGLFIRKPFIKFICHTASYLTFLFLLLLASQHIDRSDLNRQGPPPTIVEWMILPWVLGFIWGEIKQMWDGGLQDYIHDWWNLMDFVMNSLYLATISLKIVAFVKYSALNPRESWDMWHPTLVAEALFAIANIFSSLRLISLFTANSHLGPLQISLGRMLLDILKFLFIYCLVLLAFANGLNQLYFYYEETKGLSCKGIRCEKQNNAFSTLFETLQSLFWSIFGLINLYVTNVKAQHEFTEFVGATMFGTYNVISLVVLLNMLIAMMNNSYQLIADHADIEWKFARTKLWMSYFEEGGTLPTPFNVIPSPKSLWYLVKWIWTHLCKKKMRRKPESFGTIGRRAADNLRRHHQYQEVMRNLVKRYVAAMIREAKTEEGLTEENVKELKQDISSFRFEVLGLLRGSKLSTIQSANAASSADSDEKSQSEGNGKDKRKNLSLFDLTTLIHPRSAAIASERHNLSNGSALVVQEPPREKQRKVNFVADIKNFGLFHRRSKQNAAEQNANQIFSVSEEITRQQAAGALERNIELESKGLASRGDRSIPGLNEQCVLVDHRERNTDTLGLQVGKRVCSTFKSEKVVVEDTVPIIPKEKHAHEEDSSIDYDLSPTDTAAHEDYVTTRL

[15] = molecular target: T7, Kappa-type opioid receptor; type: functional; remark: listed apart in the source
[16] = restored growth of temperature-sensitive Burl-1 yeast – whole organism, S. cerevisiae, Burl-1 ts mutant, luminescence, counter-screen for SUMOylation pathway inhibitor project, dose response (AID 463199); type: functional
Mu-type opioid receptor [17] = molecular target: T9, Mu-type opioid receptor; experiment: mu opioid receptor blockers – image-based, SAR follow-up (AID 2420); type: functional;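 further: compounds added before stimulation of receptor with agonist DAMGO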
[18] = molecular target: T8, Delta-type opioid receptor; experiment: DOR agonists, SAR follow-up, image-based (AID 2370); type: functional
[19] = molecular target: T7, Kappa-type opioid receptor; experiment: kappa opioid receptor blockers, image-based, SAR follow-up (AID 2348); type: functional
[20] = molecular target: T7, Kappa-type opioid receptor; experiment: kappa opioid receptor activation potency – imaging, image-based, SAR follow-up (AID 2359); type: functional
[21] = molecular target: T7, Kappa-type opioid receptor; experiment: SAR analysis of small molecule agonists of the kappa opioid receptor via a luminescent beta-arrestin assay. [Related pubchem assays (depositor defined):AID1777, AID1786, AID1966, AID2133, AID2136, AID2348, AID2352, AID2357, AID2359, AID2370, AID2420, AID2478, AID2491, AID2492, AID2493, AID2497, AID2498, AID2500, AID449737, AID488822, AID488842]; type: functional
[22] = molecular target: T8, Delta-type opioid receptor; experiment: delta opioid receptor blockers – image-based, SAR follow-up (AID 2357); type: functional
[23] = molecular target: T7, Kappa-type opioid receptor; experiment: kappa opioid receptor activation by imaging – image-based, set 3, SAR follow-up (AID 488833); type: functional
[24] = molecular target: T7, Kappa-type opioid receptor; experiment: SAR analysis of small molecule agonists of the kappa opioid receptor via a luminescent beta-arrestin assay - Set 3. [Related pubchem assays (depositor defined):AID1777, AID1785, AID1786, AID1966, AID2133, AID2136, AID2284, AID2500]; type: functional
Mu-type opioid receptor [25] = molecular target: T9, Mu-type opioid receptor; experiment: mu opioid receptor activators, image-based, SAR follow-up (AID 2352); type: functional
[26] = molecular target: T8, Delta-type opioid receptor; experiment: SAR Analysis of Agonists of the DOR Receptor using an Image-Based Assay - Set 3. [Related pubchem assays (depositor defined):AID1777, AID1786]; type: functional
Mu-type opioid receptor [27] = molecular target: T9, Mu-type opioid receptor; experiment: SAR Analysis of Agonists of the MOR Receptor using an Image-Based Assay - Set 3. [Related pubchem assays (depositor defined):AID1777, AID1785, AID1786, AID1966, AID2133, AID2136, AID2284, AID2285, AID2352]; type: functional

T9 sequence (P35372 whole entry): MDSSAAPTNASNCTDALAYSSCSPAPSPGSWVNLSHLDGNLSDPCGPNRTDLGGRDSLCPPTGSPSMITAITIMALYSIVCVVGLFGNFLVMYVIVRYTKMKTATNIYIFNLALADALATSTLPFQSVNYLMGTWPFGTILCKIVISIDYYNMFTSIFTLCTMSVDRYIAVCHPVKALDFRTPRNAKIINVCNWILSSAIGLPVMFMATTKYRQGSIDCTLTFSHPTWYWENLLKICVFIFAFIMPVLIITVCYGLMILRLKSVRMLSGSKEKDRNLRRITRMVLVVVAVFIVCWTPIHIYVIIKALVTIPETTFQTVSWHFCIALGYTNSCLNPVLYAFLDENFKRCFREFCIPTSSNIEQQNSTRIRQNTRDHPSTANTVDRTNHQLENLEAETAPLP
T7 sequence (P41145 whole entry): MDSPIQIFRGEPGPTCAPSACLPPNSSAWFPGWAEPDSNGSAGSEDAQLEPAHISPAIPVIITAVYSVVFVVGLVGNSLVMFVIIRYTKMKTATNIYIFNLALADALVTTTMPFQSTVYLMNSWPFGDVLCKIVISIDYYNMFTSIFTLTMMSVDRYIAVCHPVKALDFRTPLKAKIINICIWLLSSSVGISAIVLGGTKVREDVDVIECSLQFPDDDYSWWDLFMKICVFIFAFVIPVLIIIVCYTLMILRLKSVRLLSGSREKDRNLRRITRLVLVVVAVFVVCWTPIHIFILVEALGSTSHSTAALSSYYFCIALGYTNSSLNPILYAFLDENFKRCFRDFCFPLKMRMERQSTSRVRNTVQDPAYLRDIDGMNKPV
T8 sequence (P41143 whole entry): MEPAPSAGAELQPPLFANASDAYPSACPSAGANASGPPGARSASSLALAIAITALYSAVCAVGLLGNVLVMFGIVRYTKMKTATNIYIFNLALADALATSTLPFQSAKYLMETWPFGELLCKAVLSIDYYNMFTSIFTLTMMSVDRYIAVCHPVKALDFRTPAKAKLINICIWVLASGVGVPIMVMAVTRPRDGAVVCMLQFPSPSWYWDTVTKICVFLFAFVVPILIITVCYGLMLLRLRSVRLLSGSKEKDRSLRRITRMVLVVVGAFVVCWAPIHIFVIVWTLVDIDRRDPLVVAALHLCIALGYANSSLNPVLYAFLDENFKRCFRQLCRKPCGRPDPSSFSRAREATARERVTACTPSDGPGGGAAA
T4 sequence (Q00975 whole entry): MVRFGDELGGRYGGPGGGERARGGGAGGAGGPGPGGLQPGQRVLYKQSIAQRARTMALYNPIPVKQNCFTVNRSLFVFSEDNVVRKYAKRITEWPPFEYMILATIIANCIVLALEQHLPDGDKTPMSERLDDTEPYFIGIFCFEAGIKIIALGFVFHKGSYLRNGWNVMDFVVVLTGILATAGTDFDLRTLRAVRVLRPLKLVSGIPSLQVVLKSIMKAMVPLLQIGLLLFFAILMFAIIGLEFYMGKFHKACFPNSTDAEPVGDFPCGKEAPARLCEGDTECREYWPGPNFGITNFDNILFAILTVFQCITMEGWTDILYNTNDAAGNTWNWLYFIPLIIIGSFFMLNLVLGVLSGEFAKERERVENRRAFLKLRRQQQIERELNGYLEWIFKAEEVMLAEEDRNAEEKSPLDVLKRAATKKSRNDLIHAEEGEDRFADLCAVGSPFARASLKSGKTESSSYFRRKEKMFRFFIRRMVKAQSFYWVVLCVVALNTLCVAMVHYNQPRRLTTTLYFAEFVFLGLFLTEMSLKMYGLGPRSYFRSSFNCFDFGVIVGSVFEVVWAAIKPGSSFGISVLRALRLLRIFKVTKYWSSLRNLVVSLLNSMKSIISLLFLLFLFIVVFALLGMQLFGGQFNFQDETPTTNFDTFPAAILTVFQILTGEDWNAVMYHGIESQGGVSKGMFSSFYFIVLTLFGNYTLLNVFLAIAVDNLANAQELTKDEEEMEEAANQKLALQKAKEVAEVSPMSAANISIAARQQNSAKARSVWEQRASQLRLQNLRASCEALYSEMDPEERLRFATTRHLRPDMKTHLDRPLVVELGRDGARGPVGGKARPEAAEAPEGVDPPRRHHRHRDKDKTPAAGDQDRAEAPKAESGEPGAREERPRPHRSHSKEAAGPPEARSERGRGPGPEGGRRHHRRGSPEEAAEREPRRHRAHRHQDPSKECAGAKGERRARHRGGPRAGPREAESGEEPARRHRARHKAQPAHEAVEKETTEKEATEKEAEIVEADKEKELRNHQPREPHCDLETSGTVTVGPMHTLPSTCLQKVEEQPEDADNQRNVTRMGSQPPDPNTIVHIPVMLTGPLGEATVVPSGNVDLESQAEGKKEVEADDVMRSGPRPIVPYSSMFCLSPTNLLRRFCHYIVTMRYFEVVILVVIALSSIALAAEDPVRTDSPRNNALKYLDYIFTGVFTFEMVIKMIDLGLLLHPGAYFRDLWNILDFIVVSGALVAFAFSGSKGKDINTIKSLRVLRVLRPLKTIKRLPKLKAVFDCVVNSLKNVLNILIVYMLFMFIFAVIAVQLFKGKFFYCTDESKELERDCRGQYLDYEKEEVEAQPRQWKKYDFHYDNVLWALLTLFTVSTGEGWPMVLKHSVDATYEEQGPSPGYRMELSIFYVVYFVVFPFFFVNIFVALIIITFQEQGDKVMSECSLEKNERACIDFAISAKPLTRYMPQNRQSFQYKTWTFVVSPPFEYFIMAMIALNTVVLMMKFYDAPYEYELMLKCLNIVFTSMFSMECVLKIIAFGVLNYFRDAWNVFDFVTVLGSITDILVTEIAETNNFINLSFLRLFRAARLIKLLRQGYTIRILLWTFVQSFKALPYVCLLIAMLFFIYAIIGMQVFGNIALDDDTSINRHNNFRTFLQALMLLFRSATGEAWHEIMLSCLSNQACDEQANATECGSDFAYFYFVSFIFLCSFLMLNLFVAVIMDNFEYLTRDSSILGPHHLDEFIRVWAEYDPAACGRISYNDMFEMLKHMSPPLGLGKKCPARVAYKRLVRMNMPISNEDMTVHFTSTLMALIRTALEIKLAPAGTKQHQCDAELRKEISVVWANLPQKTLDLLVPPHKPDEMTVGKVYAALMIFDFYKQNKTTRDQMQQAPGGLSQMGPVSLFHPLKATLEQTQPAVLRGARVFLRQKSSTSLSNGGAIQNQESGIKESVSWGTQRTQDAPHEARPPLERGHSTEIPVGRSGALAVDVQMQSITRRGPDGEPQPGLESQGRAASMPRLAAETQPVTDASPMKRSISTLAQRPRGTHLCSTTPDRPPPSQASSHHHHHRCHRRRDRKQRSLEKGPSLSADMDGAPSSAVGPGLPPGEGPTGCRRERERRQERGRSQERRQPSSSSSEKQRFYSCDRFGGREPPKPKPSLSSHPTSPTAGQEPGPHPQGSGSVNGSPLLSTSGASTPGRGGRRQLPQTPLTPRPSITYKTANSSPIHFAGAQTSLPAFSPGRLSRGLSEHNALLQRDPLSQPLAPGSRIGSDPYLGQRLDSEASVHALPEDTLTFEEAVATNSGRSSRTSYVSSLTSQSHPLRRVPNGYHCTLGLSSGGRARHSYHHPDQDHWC
T4 sequence (Q02410 whole entry): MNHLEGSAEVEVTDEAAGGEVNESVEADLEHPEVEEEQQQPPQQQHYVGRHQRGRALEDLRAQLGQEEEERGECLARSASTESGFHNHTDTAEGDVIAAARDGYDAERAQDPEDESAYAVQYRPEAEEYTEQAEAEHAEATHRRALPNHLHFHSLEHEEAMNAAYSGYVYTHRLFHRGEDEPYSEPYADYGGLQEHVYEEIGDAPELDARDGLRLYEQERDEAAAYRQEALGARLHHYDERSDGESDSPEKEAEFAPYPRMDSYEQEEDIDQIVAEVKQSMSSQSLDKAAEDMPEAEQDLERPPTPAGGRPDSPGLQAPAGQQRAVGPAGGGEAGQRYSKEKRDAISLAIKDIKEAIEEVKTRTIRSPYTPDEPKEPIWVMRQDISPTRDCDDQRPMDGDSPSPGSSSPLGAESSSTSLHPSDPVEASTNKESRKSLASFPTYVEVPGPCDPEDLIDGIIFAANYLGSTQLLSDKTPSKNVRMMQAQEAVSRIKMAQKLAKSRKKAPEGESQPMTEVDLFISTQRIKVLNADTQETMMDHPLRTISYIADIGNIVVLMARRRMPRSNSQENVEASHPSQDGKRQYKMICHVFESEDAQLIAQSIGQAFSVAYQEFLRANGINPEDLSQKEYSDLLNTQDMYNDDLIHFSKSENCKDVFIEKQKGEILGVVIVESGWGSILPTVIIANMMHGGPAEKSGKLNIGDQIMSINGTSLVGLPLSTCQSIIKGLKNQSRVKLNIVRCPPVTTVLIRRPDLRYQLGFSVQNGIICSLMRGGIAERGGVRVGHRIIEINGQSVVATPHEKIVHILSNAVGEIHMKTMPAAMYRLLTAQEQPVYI
T2 sequence (P51452 whole entry): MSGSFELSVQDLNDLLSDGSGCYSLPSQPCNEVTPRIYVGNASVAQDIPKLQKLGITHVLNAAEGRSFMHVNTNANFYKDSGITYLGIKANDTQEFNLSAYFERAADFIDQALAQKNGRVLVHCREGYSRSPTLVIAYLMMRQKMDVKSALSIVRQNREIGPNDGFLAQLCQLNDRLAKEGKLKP
Sequence of CAAX prenyl protease 1 (P47154 whole entry): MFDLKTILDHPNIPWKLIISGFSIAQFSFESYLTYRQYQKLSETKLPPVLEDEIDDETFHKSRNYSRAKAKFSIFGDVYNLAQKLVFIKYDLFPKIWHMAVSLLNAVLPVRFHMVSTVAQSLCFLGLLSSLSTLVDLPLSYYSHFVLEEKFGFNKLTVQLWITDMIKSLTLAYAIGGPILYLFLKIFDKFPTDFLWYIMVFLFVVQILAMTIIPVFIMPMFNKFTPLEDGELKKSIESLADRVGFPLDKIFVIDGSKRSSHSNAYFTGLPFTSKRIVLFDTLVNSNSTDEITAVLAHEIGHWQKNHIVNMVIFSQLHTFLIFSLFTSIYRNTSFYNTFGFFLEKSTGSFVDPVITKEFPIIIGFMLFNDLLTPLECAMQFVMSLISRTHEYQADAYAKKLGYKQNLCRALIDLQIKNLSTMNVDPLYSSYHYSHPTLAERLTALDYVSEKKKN

O=C1c2ccccc2SC1c1ccccc1 (stereo unspecified)
IC50 (Phosphomannomutase 2): > 100 µM (inactive) | IC50 [1]: > 100 µM (inactive)

O=C1NC(=S)N(c2ccc(F)cc2)C(=O)/C1=C/c1ccco1
IC50 [2]: < 1.23 µM (inactive) | IC50 [3]: < 1.23 µM (inactive) | IC50 [4]: 1.36 µM (active) | IC50 [5]: 4.45 µM (active) | IC50 [6]: 8.21 µM (active) | IC50 [7]: 3.33 µM (active) | IC50 [8]: > 67 µM (not active) | EC50 [9]: 11.1 µM (active)

C/C(=N\Nc1ccc2ccccc2n1)c1ccccc1O
IC50 (Apelin receptor): 4.12 µM (active)

COc1cccc(C2CC3=Nc4ccccc4N(C(=O)CCC(=O)O)C(c4ccc(F)cc4)C3=C(O)C2)c1 (stereo unspecified)
AC50 (Trypsin): 12 µM (active) | AC50 (CAAX prenyl protease 1): 21.6 µM (active)

Cc1cccc(-n2ccnc2CN2CCC(CO)(Cc3ccccc3)CC2)c1
EC50 [10]: 4.15 µM | EC50 [11]: > 32 µM (inactive) | EC50 (Mu-type opioid receptor [12]): > 32 µM (inactive) | IC50 [13]: > 32 µM (inactive) | EC50 [14]: 1.68 µM (active) | EC50 [15]: 5.69 µM

S=C(NCCc1c[nH]c2ccccc12)NC1CC1
AC50 [16]: 51 µM (active)

Clc1ccccc1CSc1nnc(-c2ccccn2)n1Cc1ccco1
IC50 (Mu-type opioid receptor [17]): > 32 µM (inactive) | EC50 [18]: > 32 µM (inactive) | IC50 [19]: > 32 µM (inactive) | EC50 [20]: 10.4 µM (active) | EC50 [21]: > 10 µM (inactive) | IC50 [22]: > 32 µM (inactive) | EC50 [23]: 11.6 µM (inactive) | EC50 [24]: 9.07 µM (active) | EC50 (Mu-type opioid receptor [25]): > 32 µM (inactive) | EC50 [26]: > 64 µM (inactive) | EC50 (Mu-type opioid receptor [27]): > 32 µM (inactive)

Source: ChEMBL document CHEMBL1201862, “PubChem BioAssay data set” (2004)
